Assay results from patent US9254299B2, “Administration of hypoxia activated prodrugs in combination with Chk1 inhibitors for treating cancer” (THRESHOLD PHARMACEUTICALS, INC., priority 2011, dated 2016).
“Also recorded” adds a separate entry of the source. Like-named read-outs stand apart in the source and are kept apart here. Residues, ends and D or L forms follow the SMILES beside them. *: point of attachment. Cbz = O=C(OCc1ccccc1)*; CH2F = FC*

Experiments:
H460 cells = experiment: 3-day in vitro proliferation assay, AlamarBlue, H460 cells; type: cell-based; conditions: for anti cancer efficacy in combination with TH-302: H460 non-small cell lung cell line; for change of activity by the presence of Chk1 inhibitors: H460, p53 wild type
Experimental: (§1) After a wash to remove drugs, cells were incubated with fresh media at 37° C. for an additional 3 days in the presence of a Chk1 inhibitor. Cell viability was determined using AlamarBlue. For a doxorubicin group (doxorubicin also induces cell cycle arrest in the G2/M phase and was used as a non-hypoxia activated prodrug control), cells were co-treated with doxorubicin and Chk1 inhibitors for 3 days.

Hela cells [1] = experiment: 3-day in vitro proliferation assay, AlamarBlue, Hela cells; type: cell-based; conditions: for anti cancer efficacy in combination with TH-302: HeLa cervical cell line
Experimental: as §1

HT29 cells [2] = experiment: 3-day in vitro proliferation assay, AlamarBlue, HT29 cells; type: cell-based; conditions: for anti cancer efficacy in combination with TH-302: HT-29 colon cell line
Experimental: as §1

HT29 cells [3] = experiment: Luminescence-based caspase activity assay (Caspase Glo3/7), apoptosis; type: cell-based; conditions: for induction of apoptosis: TH-302 0-10 μM air, 0-1 μM N2, AZD7762 0.1 μM, 2 hr + 46 hr
Experimental: Induction of apoptosis was also assessed. HT29 cells were seeded at a density of 40,000 cells per well of a 24 well plate. […] A luminescence-based caspase activity assay was performed. […] To validate the specificity of apoptotic signal, the pan-caspase inhibitor ZVAD was included in the testing.

Du145 cells = experiment: 3-day in vitro proliferation assay, AlamarBlue, Du145 cells; type: cell-based; conditions: Du145, p53 heterozygous
Experimental: as §1
Appropriate Du145 and H460 cells were treated with TH-302 and Chk1 inhibitors as described in Example 1.

Cdc2-Y15 phosphorylation = experiment: Immunoblot of Cdc2-Y15 phosphorylation and protein expression; type: cell-based; conditions: for Cdc2-Y15 phosphorylation / DNA damaging agent-induced increase of Cdc2-Y15 phosphorylation in the presence of the Chk1 inhibitor: HeLa; for Cdc2-Y15 phosphorylation: agent alone; for DNA damaging agent-induced increase of Cdc2-Y15 phosphorylation in the presence of the Chk1 inhibitor: with Chk1 inhibitor
Experimental: (§2) HeLa cells were treated with TH-302 and a Chk1 inhibitor as described in Example 1. Cells were harvested and analyzed for cell cycle distribution by flow cytometry and for protein expression by immunoblot.

HT-29 tumor = experiment: HT29 xenograft antitumor activity; type: in vivo; conditions: HT-29 tumor-bearing mice, i.p., drug alone (TH-302 50 mg/kg QD×5/wk×2 wks or 100 mg/kg twice/wk×2 wks; AZD7762 12.5 mg/kg)
Chk2 = Chk2 (Homo sapiens, UniProt O96017); conditions: read-out: IC50 for Chk2; cited from earlier work
Sequence of Chk2 (O96017 whole entry): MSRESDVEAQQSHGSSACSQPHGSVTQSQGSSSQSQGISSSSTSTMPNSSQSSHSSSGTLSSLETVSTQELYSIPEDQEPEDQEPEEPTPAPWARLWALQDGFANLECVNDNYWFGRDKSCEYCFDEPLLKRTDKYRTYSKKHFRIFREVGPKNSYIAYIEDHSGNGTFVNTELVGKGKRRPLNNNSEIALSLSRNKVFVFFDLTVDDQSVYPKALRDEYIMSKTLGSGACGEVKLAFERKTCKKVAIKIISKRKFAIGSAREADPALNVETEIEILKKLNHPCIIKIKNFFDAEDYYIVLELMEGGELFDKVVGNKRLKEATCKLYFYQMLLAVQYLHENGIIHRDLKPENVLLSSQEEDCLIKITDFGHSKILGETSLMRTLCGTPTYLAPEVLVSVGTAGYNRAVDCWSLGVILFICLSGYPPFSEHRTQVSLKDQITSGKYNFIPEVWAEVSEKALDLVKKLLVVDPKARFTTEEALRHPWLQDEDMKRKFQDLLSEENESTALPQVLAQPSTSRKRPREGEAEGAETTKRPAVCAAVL

γH2AX = γH2AX immunofluorescence (DNA damage response); type: cell-based; conditions: p53−/− HT29 cells; 2 hr normoxic or hypoxic, then 4 hr; AZD7762 0.1 μM
Experimental: HT29 cells were permeabilized with 1% Triton X-100 and incubated with γH2AX monoclonal antibody for 2 hr and goat anti-mouse-FITC for 1 hr. Cells were imaged using a fluorescent microscope (Nikon TS-100).

p53 proficient cells = experiment: Proliferation assay in p53 proficient cells (Horizon Discovery); type: cell-based
Experimental: as §1
(§3) Cells (provided by Horizon Discovery Ltd. and generated using Horizon's adeno-associated virus (AAV) technology Genesis™) were treated as described in Example 1.

p53 deficient cells = experiment: Proliferation assay in p53 deficient cells (Horizon Discovery); type: cell-based
Experimental: as §1, §3

Hela cells [4] = experiment: Cell cycle distribution by flow cytometry; type: cell-based
Experimental: as §2

Rad51 = experiment: Immunoblot of Rad51 expression; type: cell-based; conditions: HT29; samples as for the Histone H3 blot
Experimental: To explore involved signaling pathways, an immunoblot analysis was conducted. HT29 cells were seeded in p60 dishes at a density of 2×10^6 cells per dish and incubated overnight for cell attachment. […] Insoluble debris was pelleted and the protein concentration of the resulting supernatant determined using a Sigma BCA kit (St. Louis, Mo.). About 10 μg of protein from each sample were loaded onto and SDS gel and electrophoresed and then electrotransferred to a nitrocellulose membrane. Proteins were detected with an electrochemiluminescent detection system (ChemiGlow; Protein Simple, Santa Clara, Calif.) using antibodies recognizing Histone H3.
The samples were collected as described above for the Histone H3 blot. In response to TH-302, Rad51 expression levels were increased.

UV41 = experiment: Cytotoxicity in HDR deficient UV41 cells; type: cell-based
Experimental: as §1
(§4) To investigate which DNA repair system is affected by Chk-1 inhibitor-mediated enhancement of TH-302 cytotoxicity, CHO cell-based DNA repair mutant cell line pairs were utilized. The experimental details were as described in Example 1. […] HDR (homology-dependent repair) is the specific type of DNA repair capable of repairing TH-302-induced DNA damage.

AA8 CHO cells = experiment: Cytotoxicity in HDR proficient AA8 CHO cells; type: cell-based; conditions: Cricetulus griseus
Experimental: as §1, §4

irs1SF = experiment: Cytotoxicity in HDR deficient irs1SF cells; type: cell-based
Experimental: as §1, §4

PF477736
anti cancer efficacy in combination with TH-302 (H460 cells): not | anti cancer efficacy in combination with TH-302 (Hela cells [1]): increased anti cancer efficacy | anti cancer efficacy in combination with TH-302 (HT29 cells [2]): increased anti cancer efficacy

CC(NC(=O)C(NC(=O)OCc1ccccc1)C(C)C)C(=O)NC(CC(=O)O)C(=O)CF (stereo not drawn) [ZVAD] (Cbz-Val-Ala-Asp-CH2F; configuration not given here)
apoptotic signal generated by the combination therapy (HT29 cells [3]; added to TH-302 and AZD7762): reduced the apoptotic signal

Cc1cnc(NC(=O)Nc2cc(Br)c(C)cc2OC[C@@H]2CNCCO2)cn1 [LY2603618]
anti cancer efficacy in combination with TH-302 (H460 cells): not | anti cancer efficacy in combination with TH-302 (Hela cells [1]): increased anti cancer efficacy | anti cancer efficacy in combination with TH-302 (HT29 cells [2]): increased anti cancer efficacy

COc1cccc2c1C(=O)c1c(O)c3c(c(O)c1C2=O)C[C@@](O)(C(=O)CO)C[C@@H]3O[C@H]1C[C@H](N)[C@H](O)[C@H](C)O1 [doxorubicin, reference compound]
change of activity by the presence of Chk1 inhibitors (H460 cells): lack of enhanced activity | change of activity by the presence of Chk1 inhibitors (Du145 cells): lack of enhanced activity | Cdc2-Y15 phosphorylation (Cdc2-Y15 phosphorylation): upregulate phosphorylation of Cdc2-Y15 | DNA damaging agent-induced increase of Cdc2-Y15 phosphorylation in the presence of the Chk1 inhibitor (Cdc2-Y15 phosphorylation): completely eliminated

NC(=O)Nc1cc(-c2cccc(F)c2)sc1C(=O)N[C@H]1CCCNC1 [AZD7762]
anti cancer efficacy in combination with TH-302 (H460 cells): not | anti cancer efficacy in combination with TH-302 (Hela cells [1]): increased anti cancer efficacy | tumor growth (HT-29 tumor): produced a growth delay | anti cancer efficacy in combination with TH-302 (HT29 cells [2]): increased anti cancer efficacy | IC50 (Chk2): < 0.01 µM | induction of apoptosis (HT29 cells [3]): slight increase | γH2AX staining (γH2AX): could induce γH2AX

Cn1c(COP(=O)(NCCBr)NCCBr)cnc1[N+](=O)[O-] [TH-302]
change of activity by co-treatment with a Chk1 inhibitor (p53 proficient cells): not | change of activity by co-treatment with a Chk1 inhibitor (p53 deficient cells): significantly enhanced | change of activity by the presence of Chk1 inhibitors (H460 cells): not enhanced; also recorded: not affected | enhancement of TH-302 activity by the presence of a Chk1 inhibitor (Hela cells [1]; Hela, p53-deficient, any one of PF477736, AZD7762, LY2603618): 15 to 50 fold | change of activity by the presence of Chk1 inhibitors (Hela cells [1]; Hela, 0.4 μM PF477736, 0.1 μM AZD7762 or 0.5 μM LY2603618, normoxia or hypoxia): significantly enhanced | tumor growth (HT-29 tumor): produced a growth delay | enhancement of TH-302 activity by the presence of a Chk1 inhibitor (HT29 cells [2]; HT29, p53-deficient, any one of PF477736, AZD7762, LY2603618): 15 to 50 fold | change of activity by the presence of Chk1 inhibitors (HT29 cells [2]; HT29, 0.4 μM PF477736, 0.1 μM AZD7762 or 0.5 μM LY2603618, normoxia or hypoxia): significantly enhanced | cell cycle arrest (Hela cells [4]; agent alone): concentration-dependent cell cycle arrest at G2/M | TH-302-mediated G2/M arrest in the presence of the Chk1 inhibitor (Hela cells [4]; with Chk1 inhibitor): abrogated | change of activity by the presence of Chk1 inhibitors (Du145 cells): not enhanced | Rad51 expression levels (Rad51): increased | expression of Cdc-2, Myt1 and Chk1 (Cdc2-Y15 phosphorylation): does not affect | Cdc2-Y15 phosphorylation (Cdc2-Y15 phosphorylation): upregulate phosphorylation of Cdc2-Y15 | DNA damaging agent-induced increase of Cdc2-Y15 phosphorylation in the presence of the Chk1 inhibitor (Cdc2-Y15 phosphorylation): completely eliminated | induction of apoptosis (HT29 cells [3]): did not induce apoptosis | IC50 (UV41; UV41, N2, with AZD7762 (0.1 μM), read-out: TH-302 IC50): 0.06 µM | IC50 (UV41; UV41, N2, read-out: IC50 of TH-302 monotherapy): 0.07 µM | IC50 (UV41; UV41, air, with AZD7762 (0.1 μM), read-out: TH-302 IC50): 26 µM | IC50 (UV41; UV41, air, read-out: IC50 of TH-302 monotherapy): 29 µM | IC50 (AA8 CHO cells; AA8, N2, read-out: IC50 of TH-302 monotherapy): 3.2 µM | IC50 (AA8 CHO cells; AA8, N2, with AZD7762 (0.1 μM), read-out: TH-302 IC50): 1.2 µM | IC50 (AA8 CHO cells; AA8, air, read-out: IC50 of TH-302 monotherapy): 490 µM | IC50 (AA8 CHO cells; AA8, air, with AZD7762 (0.1 μM), read-out: TH-302 IC50): 260 µM | γH2AX staining (γH2AX): could induce γH2AX | IC50 (irs1SF; N2, read-out: IC50 of TH-302 monotherapy): 0.4 µM | IC50 (irs1SF; N2, with AZD7762 (0.1 μM), read-out: TH-302 IC50): 0.3 µM | IC50 (irs1SF; air, read-out: IC50 of TH-302 monotherapy): 54 µM | IC50 (irs1SF; air, with AZD7762 (0.1 μM), read-out: TH-302 IC50): 63 µM
